From patent publication US20240041042A1, “1-(PYRIDYL)-5-AZINYLPYRAZOLE DERIVATIVES, AND THEIR USE FOR CONTROL OF UNDESIRED PLANT GROWTH” (Bayer Aktiengesellschaft, priority 2020, published 2024)
Where two headings read alike, the source gives them in different places.

Assays:
Assay type in all cases: in vivo
[1] = test system: Echinochloa crus-galli (ECHCG); assay: Post-emergence herbicidal action against ECHCG
How it was run: (§1)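 Doses of 320 g/ha or lower, suffixes a, b and c marking different dosages, were applied post-emergence at the one-leaf stage in 600 l/ha water with 0.5% additive. Damage was assessed visually after about 3 weeks in the greenhouse.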

[2] = test system: Pharbitis purpurea (PHBPU); assay: Pre-emergence herbicidal action against PHBPU; conditions: dosage 320 g/ha
How it was run: (§2)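 Seeds sown in pots and covered with soil; WP or EC formulations sprayed onto the soil surface at 600 l/ha water with 0.5% additive, at 320 g/ha or lower. Greenhouse growth for about 3 weeks, then visual scoring as % effect against untreated controls (100% = plants dead).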

[3] = test system: Digitaria sanguinalis (DIGSA); assay: Post-emergence herbicidal action against DIGSA; conditions: 320 g/ha, visual rating about 3 weeks after treatment
How it was run: as §1

Setaria viridis (SETVI) [4] = assay: Pre-emergence herbicidal action against SETVI; conditions: dosage 320 g/ha
How it was run: as §2

[5] = test system: Verconica persica (VERPE); assay: Post-emergence herbicidal action against VERPE; conditions: 320 g/ha, VERPE
How it was run: as §1

[6] = test system: Echinochloa crus-galli (ECHCG); assay: Pre-emergence herbicidal action against ECHCG; conditions: dosage 320 g/ha
How it was run: as §2

Setaria viridis (SETVI) [7] = assay: Post-emergence herbicidal action against SETVI; conditions: dosage 320 g/ha
How it was run: as §1

Lolium rigidum (LOLRI) [8] = assay: Pre-emergence herbicidal action against LOLRI
How it was run: as §2

Brassica napus (BRSNW) = conditions: 80 g/ha, crop plant compatibility, in comparison to untreated controls
How it was run: (§3)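 Crop injury rated visually in percent against untreated plants roughly 3 weeks after treatment (0% no effect, 100% plants dead). Compounds, as WP or EC with 0.5% additive in 600 l/ha water, were applied to the covering soil right after sowing; greenhouse growth. Suffixes a, b, c denote different dosages.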

Zea mays (ZEAMX) [9] = conditions: pre-emergence, 80 g/ha, crop plant compatibility, in comparison to untreated controls
How it was run: as §3

Lolium rigidum (LOLRI) [10] = assay: Post-emergence herbicidal action against LOLRI
How it was run: as §1

[11] = test system: Matricaria inodora (MATIN); assay: Post-emergence herbicidal action against MATIN; conditions: dosage 320 g/ha
How it was run: as §1

[12] = test system: Matricaria inodora (MATIN); assay: Pre-emergence herbicidal action against MATIN; conditions: dosage 320 g/ha
How it was run: as §2

[13] = test system: Alopecurus myosuroides (ALOMY); assay: Post-emergence herbicidal action against ALOMY; conditions: visual rating about 3 weeks after treatment vs untreated controls (100% = plants have died, 0% = like control plants)
How it was run: as §1

[14] = test system: Amaranthus retroflexus (AMARE); assay: Post-emergence herbicidal action against AMARE; conditions: 320 g/ha, visual rating about 3 weeks after treatment
How it was run: as §1

[15] = test system: Digitaria sanguinalis (DIGSA); assay: Pre-emergence herbicidal action against DIGSA
How it was run: as §2

Viola tricolor (VIOTR) [16] = assay: Post-emergence herbicidal action against VIOTR
How it was run: as §1

[17] = test system: Pharbitis purpurea (PHBPU); assay: Post-emergence herbicidal action against PHBPU
How it was run: as §1

Viola tricolor (VIOTR) [18] = assay: Pre-emergence herbicidal action against VIOTR
How it was run: as §2

[19] = test system: Amaranthus retroflexus (AMARE); assay: Pre-emergence herbicidal action against AMARE; conditions: 320 g/ha, visual scoring after about 3 weeks vs untreated controls
How it was run: as §2

[20] = test system: Polygonum convolvulus (POLCO); assay: Pre-emergence herbicidal action against POLCO; conditions: dosage 320 g/ha
How it was run: as §2

Oryza sativa (ORYSA) [21] = conditions: pre-emergence, 80 g/ha, crop plant compatibility, in comparison to untreated controls
How it was run: as §3

[22] = test system: Alopecurus myosuroides (ALOMY); assay: Pre-emergence herbicidal action against ALOMY; conditions: 320 g/ha; scored visually after about 3 weeks; 100% = plants have died
How it was run: as §2

Oryza sativa (ORYSA) [23] = conditions: crop plant compatibility, effect in comparison to untreated controls
How it was run: (§4)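 Effects were read visually as % versus untreated controls (0% = no effect, 100% = death) about 3 weeks post-treatment. Application was a post-emergence spray at the one-leaf stage of WP/EC formulations with 0.5% additive at 600 l/ha. Different dosages are denoted a, b and c.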

Zea mays (ZEAMX) [24] = conditions: crop plant compatibility, 80 g/ha, effect vs untreated controls
How it was run: as §4

Avena fatua (AVEFA) [25] = assay: Post-emergence herbicidal action against AVEFA; conditions: 320 g/ha, visual rating about 3 weeks after treatment
How it was run: as §1

[26] = test system: Polygonum convolvulus (POLCO); assay: Post-emergence herbicidal action against POLCO; conditions: dosage 320 g/ha
How it was run: as §1

Avena fatua (AVEFA) [27] = assay: Pre-emergence herbicidal action against AVEFA; conditions: 320 g/ha, visual scoring after about 3 weeks vs untreated controls
How it was run: as §2

| Pre-emergence action against BRSNW in % (Brassica napus (BRSNW)) [%] | Pre-emergence action against ZEAMX in % (Zea mays (ZEAMX) [9]) [%] | Pre-emergence action against ORYSA in % (Oryza sativa (ORYSA) [21]) [%] | Post-emergence action against ORYSA in % (Oryza sativa (ORYSA) [23]; 80 g/ha) [%] | Post-emergence action against ZEAMX in % (Zea mays (ZEAMX) [24]) [%] | SMILES | Post-emergence action against ECHCG in % ([1]; dosage 320 g/ha) [%] | Pre-emergence action against SETVI in % (Setaria viridis (SETVI) [4]) [%] | Post-emergence action against VERPE in % [5] [%] | Post-emergence action against SETVI in % (Setaria viridis (SETVI) [7]) [%] | Pre-emergence action against LOLRI in % (Lolium rigidum (LOLRI) [8]; dosage 320 g/ha) [%] | Post-emergence action against LOLRI in % (Lolium rigidum (LOLRI) [10]; dosage 320 g/ha) [%] | Post-emergence action against ALOMY in % ([13]; 320 g/ha) [%] | Post-emergence action against AMARE in % [14] [%] | Pre-emergence action against DIGSA in % ([15]; dosage 320 g/ha) [%] | Post-emergence action against VIOTR in % (Viola tricolor (VIOTR) [16]; 320 g/ha) [%] | Post-emergence action against PHBPU in % ([17]; dosage 320 g/ha) [%] | Pre-emergence action against VIOTR in % (Viola tricolor (VIOTR) [18]; 320 g/ha, Viola tricolor) [%] | Pre-emergence action against AMARE in % [19] [%] | Pre-emergence action against ALOMY [22] [%] | Post-emergence action against AVEFA in % (Avena fatua (AVEFA) [25]) [%] | further results |
| --- | --- | --- | --- | --- | --- | --- | --- | --- | --- | --- | --- | --- | --- | --- | --- | --- | --- | --- | --- | --- | --- |
| 20 | 10 |  |  |  | COC(=O)COc1nn(-c2nc(F)ccc2F)c(-c2ccc(F)nc2)c1C1CC1 [Example I-300] | 90 | 90 | 80 | 80 | 90 | 90 | 90 | 80 | 100 | 90 | 80 | 90 | 90 |  |  | Post-emergence action against ECHCG in % ([1]; dosage 80 g/ha): 80%; Pre-emergence action against PHBPU in % [2]: 80%; Post-emergence action against DIGSA in % [3]: 80%; Pre-emergence action against ECHCG in % [6]: 90%; Pre-emergence action against LOLRI in % (Lolium rigidum (LOLRI) [8]; dosage 80 g/ha): 80%; Post-emergence action against LOLRI in % (Lolium rigidum (LOLRI) [10]; dosage 80 g/ha): 90%; Post-emergence action against MATIN in % [11]: 80%; Pre-emergence action against MATIN in % [12]: 80%; Post-emergence action against ALOMY in % ([13]; 80 g/ha): 80%; Pre-emergence action against DIGSA in % ([15]; 80 g/ha, visual scoring after about 3 weeks vs untreated controls): 90%; Post-emergence action against VIOTR in % (Viola tricolor (VIOTR) [16]; 80 g/ha): 80% |
| 0 | 0 | 20 | 20 | 0 | COC(=O)CCOC(=O)COc1nn(-c2ncccc2C(F)(F)F)c(-c2ccc(F)nc2)c1Br [Example I-381] | 80 |  | 80 |  | 90 | 80 |  |  |  |  |  | 90 | 90 | 90 |  | Pre-emergence action against POLCO in % [20]: 80%; Pre-emergence action against VIOTR in % (Viola tricolor (VIOTR) [18]; dosage 80 g/ha): 80%; Post-emergence action against ORYSA in % (Oryza sativa (ORYSA) [23]; 320 g/ha): 20% |
| 0 | 0 |  | 0 |  | COC(=O)CCOC(=O)[C@@H](C)Oc1nn(-c2ccccn2)c(-c2ccc(Cl)nc2)c1Cl [Example I-245] |  |  |  |  | 90 |  | 80 | 80 | 90 | 80 | 90 | 80 | 80 | 90 | 80 | Post-emergence action against PHBPU in % ([17]; dosage 80 g/ha): 80%; Post-emergence action against POLCO in % [26]: 80% |
| 0 | 0 | 10 | 10 | 10 | COC(=O)CCOC(=O)COc1nn(-c2ncccc2F)c(-c2ccc(F)nc2)c1Cl [Example I-272] | 80 | 90 | 80 | 80 | 80 |  | 90 |  |  |  |  | 90 | 90 | 90 | 80 | Pre-emergence action against AVEFA in % (Avena fatua (AVEFA) [27]): 100%; Post-emergence action against POLCO in % [26]: 80% |
